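How tested: cells in 96-well plates exposed to compound for 48 hours at five concentrations. GI50: concentration for 50% inhibition of growth.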 Active and inactive are the calls of the source. Rule as the data show it: active = GI50 up to about 1.1 µM and inactive = higher.
Columns and labels:
Assay in all cases: growth of human tumour cells (NCI), 48 h
[1] = tested on: CCRF-CEM
[2] = tested on: HCC 2998
[3] = tested on: HCT-116
[4] = tested on: HOP-62
[5] = tested on: KM12
[6] = tested on: Malme-3M
[7] = tested on: NCI-H522
[8] = tested on: OVCAR-5
[9] = tested on: SF-295
[10] = tested on: SF-539
[11] = tested on: SK-OV-3
[12] = tested on: UO-31
[13] = tested on: M14
[14] = tested on: OVCAR-4
[15] = tested on: SN12C
[16] = tested on: UACC-62

Measured: GI50

CC1(C)OCC(C(O)C2OC(C)(C)OC2/C=N\O)O1 (stereo unspecified)
inactive: [1] > 100 µM | [2] > 100 µM | [3] > 100 µM | [4] > 100 µM | [5] > 100 µM | [6] > 100 µM | [7] > 100 µM | [8] > 100 µM | [9] > 100 µM | [10] > 100 µM | [11] > 100 µM | [12] > 100 µM

C[C@]12CCC(=O)C=C1CC[C@@H]1[C@@H]2[C@@H](O)C[C@@]2(C)[C@H]1CC[C@]2(O)C(=O)COC(=O)COCC(=O)O
inactive: [1] > 100 µM | [2] > 100 µM | [3] > 100 µM | [4] > 100 µM | [5] > 100 µM | [13] > 100 µM | [6] > 100 µM | [7] > 100 µM | [14] > 100 µM | [8] > 100 µM | [9] > 100 µM | [10] > 100 µM | [11] > 100 µM | [15] > 100 µM | [16] > 100 µM | [12] > 100 µM

N#Cc1cnsc1
inactive: [1] > 100 µM | [2] > 100 µM | [3] > 100 µM | [4] > 100 µM | [5] > 100 µM | [13] > 100 µM | [6] > 100 µM | [14] > 100 µM | [8] > 100 µM | [9] > 100 µM | [10] > 100 µM | [11] > 100 µM | [15] > 100 µM | [16] > 100 µM | [12] > 100 µM

O=C(c1ccc2c3c(ccc(C(=O)C(F)(F)F)c13)CC2)C(F)(F)F
inactive: [2] > 100 µM | [3] 69.2 µM | [4] 72.1 µM | [5] 44.1 µM | [13] 34.4 µM | [6] 52.4 µM | [7] 29.8 µM | [14] 35.1 µM | [8] > 100 µM | [9] 44.6 µM | [10] > 100 µM | [11] > 100 µM | [15] 92.9 µM | [16] 79.3 µM | [12] 43.2 µM

O=C1CCC(c2nc3cc(Cl)ccc3o2)C(=O)N1 (stereo unspecified)
inactive: [1] > 100 µM | [2] > 100 µM | [3] > 100 µM | [4] > 100 µM | [5] > 100 µM | [13] > 100 µM | [6] > 100 µM | [7] > 100 µM | [14] > 100 µM | [8] > 100 µM | [9] > 100 µM | [10] > 100 µM | [11] > 100 µM | [15] > 100 µM | [16] > 100 µM | [12] > 100 µM

CC1=CC(C)(C)N=C2SC(c3ccc(Cl)cc3)=NN12
inactive: [1] 28.2 µM | [2] 25.6 µM | [4] 54.3 µM | [5] 26 µM | [13] 30.5 µM | [6] 24.9 µM | [7] 15.6 µM | [14] 26.2 µM | [8] 17.6 µM | [9] 31.2 µM | [10] 31.6 µM | [11] 46.2 µM | [16] 59.6 µM | [12] 19.8 µM

CCCCCCCCSC(SCCCCCCCC)=C1C(=O)N(c2ccccc2)N=C1C
inactive: [1] 16.1 µM | [2] 71.3 µM | [3] 14.8 µM | [4] 46.5 µM | [5] 33.7 µM | [13] 83 µM | [6] 53.6 µM | [7] 20.3 µM | [8] 80.4 µM | [9] 36.9 µM | [11] 77.3 µM | [15] 33.7 µM | [16] 24.5 µM | [12] 27.5 µM

Sc1nnc(COc2ccc(Cl)cc2)o1
inactive: [1] > 100 µM | [2] > 100 µM | [3] > 100 µM | [4] > 100 µM | [5] > 100 µM | [13] > 100 µM | [6] > 100 µM | [7] > 100 µM | [14] > 100 µM | [8] > 100 µM | [9] > 100 µM | [10] > 100 µM | [11] > 100 µM | [15] > 100 µM | [16] > 100 µM | [12] > 100 µM

O=C(C#Cc1cnc(O)nc1O)c1ccccc1Cl
inactive: [1] 3.94 µM | [2] 16.9 µM | [3] 14.4 µM | [4] > 100 µM | [5] 29.6 µM | [13] 15.5 µM | [6] 13.3 µM | [14] 17.4 µM | [8] 19.7 µM | [9] > 100 µM | [10] 16.3 µM | [11] 51.3 µM | [15] 14.1 µM | [16] 16.4 µM | [12] 21 µM

Cc1c2ccncc2c(C)c2c1[nH]c1ccc(O)c(OCC(F)(F)F)c12
inactive: [1] 2.33 µM | [2] 9.42 µM | [3] 2.39 µM | [4] 10.8 µM | [13] 9.55 µM | [6] 11.9 µM | [7] 4.5 µM | [14] 4.08 µM | [8] 12.6 µM | [9] 5.21 µM | [10] 6.05 µM | [11] 10.2 µM | [15] 8.2 µM | [16] 10.5 µM | [12] 9.66 µM

CC(=O)OCC1OC(n2cnc3c(I)nc(I)nc32)C(OC(C)=O)C1OC(C)=O (stereo unspecified)
inactive: [1] 3.8 µM | [2] 5.21 µM | [3] 4.91 µM | [4] 18.8 µM | [5] 4.48 µM | [13] 17.2 µM | [6] 18.7 µM | [7] 1.91 µM | [14] 4.71 µM | [8] 20.8 µM | [9] 20.5 µM | [10] 16.1 µM | [15] 13.5 µM | [16] 13.6 µM | [12] 17.7 µM

N#CNC(=N)NC(=O)/C=C/C=C/c1ccc(Cl)cc1
inactive: [1] > 100 µM | [3] > 100 µM | [4] > 100 µM | [5] > 100 µM | [13] > 100 µM | [6] 39.4 µM | [7] > 100 µM | [14] 57.5 µM | [8] > 100 µM | [9] > 100 µM | [10] 21.3 µM | [11] > 100 µM | [15] > 100 µM | [16] > 100 µM | [12] > 100 µM

CCOC(=O)CCn1[nH]c(=O)c(Cl)c(Cl)c1=O
inactive: [1] > 100 µM | [2] > 100 µM | [3] > 100 µM | [4] > 100 µM | [13] > 100 µM | [6] > 100 µM | [7] > 100 µM | [14] > 100 µM | [8] > 100 µM | [9] > 100 µM | [11] > 100 µM | [15] > 100 µM | [16] > 100 µM | [12] > 100 µM

CC1CCC(C(C)C)C(O[C@@H]2OC(=O)C[C@@H]2Sc2ccccc2)C1 (stereo partly specified)
inactive: [1] 7.01 µM | [2] 24.7 µM | [3] 25.9 µM | [4] 32.1 µM | [5] 20.3 µM | [13] 23.2 µM | [6] 18.5 µM | [14] 15.9 µM | [8] 43 µM | [9] 21.1 µM | [10] 23.5 µM | [11] 49.8 µM | [15] 16.8 µM | [16] 24.7 µM | [12] > 10 µM

COc1cc(-c2cc(O)c3ccccc3n2)cc(OC)c1OC
inactive: [1] > 75 µM | [2] > 75 µM | [3] > 75 µM | [4] > 75 µM | [5] > 75 µM | [13] > 75 µM | [6] > 75 µM | [7] > 75 µM | [9] > 75 µM | [10] > 75 µM | [11] > 75 µM | [15] > 75 µM | [16] > 75 µM | [12] 51.3 µM

CN(C)CCN(C)C(=O)c1cccc2cccc(C(=O)O)c12
inactive: [1] > 100 µM | [2] > 100 µM | [3] > 100 µM | [4] > 100 µM | [13] > 100 µM | [6] > 100 µM | [14] > 100 µM | [8] > 100 µM | [9] > 100 µM | [10] > 100 µM | [11] > 100 µM | [15] > 100 µM | [16] > 100 µM | [12] > 100 µM

CCC(C)(C)NC1=C(NC(C)=O)C(=O)c2ccccc2C1=O
inactive: [1] 17 µM | [2] > 75 µM | [3] 17.7 µM | [4] > 75 µM | [5] 57.3 µM | [13] > 75 µM | [6] 28.7 µM | [7] 10.2 µM | [14] > 75 µM | [9] > 75 µM | [10] 24.4 µM | [11] > 75 µM | [15] > 75 µM | [16] 24.9 µM | [12] 27.5 µM

OCC1=CC(NC2CC(CO)C(O)C(O)C2O)C(O)C(O)C1O (stereo unspecified)
inactive: [1] > 100 µM | [3] > 100 µM | [4] > 100 µM | [5] > 100 µM | [13] > 100 µM | [6] > 100 µM | [7] > 100 µM | [9] > 100 µM | [10] > 100 µM | [11] > 100 µM | [15] > 100 µM | [16] > 100 µM | [12] > 100 µM

CC1(C)C2C=CC1C(=O)CC2 (stereo unspecified)
inactive: [1] > 100 µM | [2] > 100 µM | [3] > 100 µM | [4] > 100 µM | [5] > 100 µM | [13] > 100 µM | [6] > 100 µM | [7] > 100 µM | [14] > 100 µM | [8] > 100 µM | [9] > 100 µM | [10] > 100 µM | [12] > 100 µM

Reference: ChEMBL document CHEMBL1201862, “PubChem BioAssay data set” (2004)
